Earlier results, collected in US10610500B2, “Chemosensory receptor ligand-based therapies” (Anji Pharma (US) LLC, priority 2011, dated 2020).

Molecular target: T1, sweet receptor (Homo sapiens, UniProt Q7RTX0+Q8TE23)
T1 sequence (Q8TE23 20-839): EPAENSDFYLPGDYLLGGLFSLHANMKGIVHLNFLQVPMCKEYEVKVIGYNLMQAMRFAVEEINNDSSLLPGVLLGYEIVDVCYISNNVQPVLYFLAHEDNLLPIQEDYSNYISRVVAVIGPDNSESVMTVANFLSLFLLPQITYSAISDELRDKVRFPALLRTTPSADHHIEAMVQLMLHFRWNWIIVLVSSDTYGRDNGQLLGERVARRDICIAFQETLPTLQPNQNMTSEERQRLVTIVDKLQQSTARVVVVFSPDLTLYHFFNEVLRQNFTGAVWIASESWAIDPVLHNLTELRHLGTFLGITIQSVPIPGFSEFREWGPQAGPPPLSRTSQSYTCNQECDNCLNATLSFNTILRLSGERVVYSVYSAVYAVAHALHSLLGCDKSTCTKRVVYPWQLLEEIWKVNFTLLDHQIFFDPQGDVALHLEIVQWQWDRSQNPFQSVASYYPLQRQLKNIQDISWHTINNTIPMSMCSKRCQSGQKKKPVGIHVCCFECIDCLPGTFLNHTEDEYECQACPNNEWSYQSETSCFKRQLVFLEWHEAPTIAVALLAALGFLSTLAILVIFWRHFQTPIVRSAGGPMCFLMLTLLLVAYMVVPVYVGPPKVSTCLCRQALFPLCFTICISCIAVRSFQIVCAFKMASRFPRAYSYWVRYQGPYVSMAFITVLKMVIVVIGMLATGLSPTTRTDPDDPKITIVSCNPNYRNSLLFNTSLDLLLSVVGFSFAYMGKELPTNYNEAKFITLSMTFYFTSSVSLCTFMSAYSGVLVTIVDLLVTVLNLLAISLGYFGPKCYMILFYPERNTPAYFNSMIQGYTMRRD
T1 sequence (Q7RTX0 21-852): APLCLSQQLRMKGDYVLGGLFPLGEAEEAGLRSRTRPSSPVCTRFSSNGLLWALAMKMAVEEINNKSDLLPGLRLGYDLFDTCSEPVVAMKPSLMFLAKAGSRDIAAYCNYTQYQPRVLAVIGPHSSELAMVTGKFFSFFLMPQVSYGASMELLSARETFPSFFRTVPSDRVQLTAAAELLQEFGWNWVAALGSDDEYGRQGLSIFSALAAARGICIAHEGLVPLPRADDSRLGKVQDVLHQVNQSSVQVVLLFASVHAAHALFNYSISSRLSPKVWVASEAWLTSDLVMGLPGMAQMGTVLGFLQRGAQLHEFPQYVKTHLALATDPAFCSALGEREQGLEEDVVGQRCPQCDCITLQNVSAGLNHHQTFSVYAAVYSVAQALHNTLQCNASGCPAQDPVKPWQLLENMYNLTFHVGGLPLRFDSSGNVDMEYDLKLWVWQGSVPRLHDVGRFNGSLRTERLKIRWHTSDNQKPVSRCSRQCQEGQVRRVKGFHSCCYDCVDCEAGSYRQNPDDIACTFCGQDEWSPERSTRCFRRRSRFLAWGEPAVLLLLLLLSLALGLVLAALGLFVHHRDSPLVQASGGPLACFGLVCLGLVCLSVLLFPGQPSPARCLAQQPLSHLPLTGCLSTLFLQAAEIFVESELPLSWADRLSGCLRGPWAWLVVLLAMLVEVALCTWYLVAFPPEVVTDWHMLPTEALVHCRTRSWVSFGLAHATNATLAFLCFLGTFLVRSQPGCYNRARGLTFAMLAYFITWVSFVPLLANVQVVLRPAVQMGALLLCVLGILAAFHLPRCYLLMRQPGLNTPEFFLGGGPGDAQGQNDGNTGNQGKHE
Conditions: relative sweetness on a weight comparison basis to sucrose (=1.0); ranges: relative sweetness varied with the concentration of sucrose

| Sweetness/potency | Compound |
| --- | --- |
| 500 | C[C@@H]1O[C@@H](O[C@H]2O[C@@H]([C@@H](C)C3CC[C@@H]4[C@H]5CC(=O)[C@@H]6C[C@H](O[C@@H]7O[C@H](CO)[C@@H](O)[C@H](O)[C@H]7O[C@@H]7O[C@@H](C)[C@H](O)[C@@H](O)[C@H]7O)CC[C@]6(C)[C@@H]5CC[C@]34C)CC[C@@H]2C)[C@H](O)[C@H](O)[C@H]1O (stereo partly shown) [Osladin] |
| 220 | CC1(C(=O)O)C=C2C3CCC4C5(C=O)CCC(OC6OC(C(=O)O)C(O)C(O)C6OC6OCC(O)C(O)C6O)C(C)(C)C5CCC4(C)C3(C)CCC2(C)CC1 (stereo not shown) [Periandrin V] |
| 150 | CC1(C)[C@@H](O[C@H]2O[C@H](C(=O)O)[C@@H](O)[C@H](O)[C@H]2O[C@@H]2OC[C@H](O)[C@H](O)[C@H]2O)CC[C@]2(C)[C@H]3C(=O)C=C4[C@@H]5C[C@@](C)(C(=O)O)CC[C@]5(C)CC[C@@]4(C)[C@]3(C)CC[C@@H]12 [Araboglycyrrhizin] |
| 85 | Periandrin IV |
| 210 | C=C1C[C@@]23CC[C@H]4[C@@](C)(CCC[C@@]4(C)C(=O)O[C@@H]4O[C@H](CO)[C@@H](O)[C@H](O)[C@H]4O)[C@@H]2CC[C@]1(O[C@@H]1O[C@H](CO)[C@@H](O)[C@H](O)[C@H]1O[C@@H]1O[C@H](CO)[C@@H](O)[C@H](O)[C@H]1O)C3 [Stevioside] |
| 90 | CC1(C)[C@@H](O[C@@H]2O[C@H](C(=O)O)[C@@H](O)[C@H](O)[C@H]2O[C@@H]2O[C@H](C(=O)O)[C@@H](O)[C@H](O)[C@H]2O)CC[C@]2(C=O)[C@H]3CC[C@@H]4C5=C[C@@](C)(C(=O)O)CC[C@]5(C)CC[C@@]4(C)[C@]3(C)CC[C@@H]12 [Periandrin I] |
| 500 | Baiyunoside |

Second part, the compound before the results:

| Compound | Sweetness/potency |
| --- | --- |
| C=C(C)[C@@H]1CC=C(/C=N/O)CC1 [Perillartine] | 370 |
| Thaumatin | 1,600 |
| COc1ccc(CCC(=O)c2c(O)cc(O[C@@H]3O[C@H](CO)[C@@H](O)[C@H](O)[C@H]3O[C@@H]3O[C@@H](C)[C@H](O)[C@@H](O)[C@H]3O)cc2O)cc1O [Neohesperidin dihydrochalcone] | 1,000 |
| Oc1cc2c(cc1O)[C@@H]1c3ccc(O)c(O)c3OC[C@]1(O)C2 [Hematoxylin] | 120 |

Tested on: L cells located in the gut
Conditions: administration of metformin

| Compound | release of GLP-1 from the L cells |
| --- | --- |
| CN(C)C(=N)N=C(N)N [metformin] | increases |

Tested on: gut hormones
Conditions: humans

| Compound | gut hormones in the circulation |
| --- | --- |
| C=C1C[C@@]23CC[C@H]4[C@@](C)(CCC[C@@]4(C)C(=O)O[C@@H]4O[C@H](CO)[C@@H](O)[C@H](O)[C@H]4O)[C@@H]2CC[C@]1(O[C@@H]1O[C@H](CO)[C@@H](O)[C@H](O[C@@H]2O[C@H](CO)[C@@H](O)[C@H](O)[C@H]2O)[C@H]1O[C@@H]1O[C@H](CO)[C@@H](O)[C@H](O)[C@H]1O)C3 [Rebaudioside A] | no alterations |
